Where two headings read alike, the source gives them in different places.
What was measured:
[1] = tested on: CD36; experiment: Scavenger receptor expression by flow cytometry, CD36; format: cell-based, murine
Method: (§1) Cell surface CD36 and SR-A were measured by flow cytometry using CD36 (BD Biosciences Pharmingen, San Diego, Calif.) and CD204 (Serotec, Oxford, UK) specific monoclonal antibodies. See Liao et al. (2000) Arterioscler. Thromb. Vasc. Biol. 20: 1968-75; Hu et al. (1996) Blood 87: 2020-28. Murine macrophage J774A.1 cells were serum-starved overnight in media with 0.5% BSA. Cells (1×10^6) treated with cholesterol ozonation products or cholesterol ozonation product complexed with LDL for specified times were then washed twice with PBS. After harvesting the cells by scraping, they were fixed with 6% paraformaldehyde for 20 min. Cells were then resuspended in PBS containing 2% heat-inactivated FCS, 0.05% NaN3 and appropriate primary antibody, antibody conjugate or isotype control (1:100 dilution) and incubated on ice for 30 min. Expression of either CD36 or SR-A was determined with CD36 (BD Biosciences Pharmingen, San Diego, Calif.) and CD204 (Serotec, Oxford, U.K.) specific monoclonal antibodies, respectively. After washing off the primary antibody, secondary antibodies were added, cells were washed again, then analyzed on a FACS calibur 2 (Becton Dickinson, Sparks, Md.) flow cytometer and analyzed by CellQuant software. Results were expressed as mean fluorescence intensity±standard error of the mean (SEM) of at least duplicate determinations. Significance was determined using a student two-tail t test, with (*) indicating p<0.05, and (**) indicating p<0.01 versus the control.

[2] = tested on: neuronal cell lines; experiment: Cytotoxicity towards neuronal cell lines (similar procedures); format: cell-based
[3] = tested on: MH-S murine alveolar macrophage line; experiment: LDH release cytotoxicity assay, MH-S; format: cell-based; details: 18 h
Method: Cytotoxicity assays. WI-L2 human B-lymphocyte line, HAAE-1 human abdominal aortic endothelial line, MH-S murine alveolar macrophage line, and J774A.1 murine tissue macrophage line were obtained from the ATCC. Human aortic endothelial cells (HAEC) and human vascular smooth muscle cells (VSMS) were obtained from Cambrex Bio Science. Jurkat E6-1T-lymphocytes were kindly provided by Dr. J. Kaye (The Scripps Research Institute). Cells were cultured in ATCC-recommended media with 10% fetal calf serum. Cells were incubated in a controlled atmosphere at 37° C., with 5 or 7% CO2. For lactate dehydrogenase (LDH) release assays, adherent cells were harvested either by addition of 0.05% trypsin/EDTA or by scraping. The cells obtained were seeded onto 96-well microtiter plates (25,000 cells/well) and allowed to recover for 24-48 h. […] Cytotoxicity was then determined by measuring lactate dehydrogenase (LDH) release from cells in culture. […] 100% Cytotoxicity was defined as the maximum amount of LDH released by dead cells as shown by trypan blue exclusion, or the highest amount of LDH detected upon lysis of cells by 0.9% Triton X-100. The IC50 values were determined by comparison of the raw duplicate data for concentration versus cytotoxicity (%) to non-linear regression analysis (Hill plot) using Graphpad v3.0 software for Macintosh.

[4] = target: LDL / apoB-100 (Homo sapiens, UniProt P04114); experiment: Circular dichroism of LDL secondary structure; details: LDL 100 μg/ml with compound 10 μM, PBS pH 7.4, 37° C.
Method: Circular dichroism. […] Spectra were recorded in the peptidic range (200-260 nm). To increase the signal-to-noise ratio, multiple spectra (three) were averaged for each measurement.

[5] = tested on: J774.1 macrophages; experiment: Lipid-loading assay (foam cell formation); format: cell-based, murine; details: J774.1, 72 h, LDL 100 μg/mL with or without compound 20 μM
Method: Lipid-loading assay (foam cell formation). J774.1 macrophages were incubated in ATCC-recommended media containing 10% fetal bovine serum under a controlled atmosphere of 5 or 7% CO2 at 37° C., in 8-well chamber slides. […] At termination, cells were washed twice with PBS (pH 7.4). The cells were then fixed with 6% (v/v) paraformaldehyde in PBS for 30 minutes, rinsed with propylene glycol for 2 minutes and lipids were stained with 5 mg/ml Oil Red 0 for 8 minutes. The cells were counterstained with Harris' hematoxylin for 45 seconds, and background staining was removed with 6% paraformaldehyde followed by washing once in PBS and once in tap water. Cover slips were mounted onto the glass slides using glycerol and the slide preparations were examined by light microscopy. The number of lipid-laden cells was scored out of a total of at least 100 cells counted in a single field in each slide, and expressed as a percentage of total cells. Photographs were taken at 100× magnification.

[6] = tested on: E-selectin; experiment: Endothelial adhesion molecule expression ELISA, E-selectin; format: cell-based, human; details: for upregulation of E-selectin expression relative to vehicle control: HAAE-1, 4 h, 25 μM in the presence of LDL (100 μg/mL protein), or lipoprotein alone; for selectin (E-selectin) expression: HAAE-1, not complexed with LDL
Method: (§2) Endothelial cell surface adhesion molecule expression was measured by ELISA, using anti-human CD54 (ICAM-1), CD106 (VCAM-1) and CD62E (E-Selectin) antibodies (Leinco Technologies, Inc., St. Louis, Mo.). The ELISA method was modified from previously described procedures.
(§3) Cells were then incubated with antibodies to VCAM-1, E-selectin, or ICAM-1 diluted 1:400 in PBS containing 5% FCS at 37° C. for 30 min. Wells were washed two times with PBS, then incubated with horseradish peroxidase (HRP)-conjugated goat anti-mouse IgG (Southern Biotechnology Associates, Birmingham, Ala., USA) in PBS/5% FCS at 37° C. for 30 min. The wells were washed four times with PBS, then incubated with H2O2/3,3′,5,5′-tetramethyl-benzidine peroxidase substrate (Pierce Chemical, Rockford, Ill., USA) for 30 min in the dark. The reaction was stopped by adding 25 μl of 8 N H2SO4, and the plates read on a microplate reader, blanking on wells stained with only secondary antibody. Each assay was performed in triplicate and the data are reported as the mean±SEM as a percentage of the expression level of the vehicle. To study the effect of cholesterol ozonation product 5a concentration (5-50 μM) on E-selectin expression, the assay was performed in an identical fashion as described above, with each point being the mean±SEM of at least duplicate measurements.

[7] = tested on: U-937 monocytes on endothelial cell monolayers; experiment: Monocyte-endothelial cell-cell adhesion by fluorescence spectroscopy; format: cell-based; details: alone or in complex with LDL
[8] = tested on: ICAM-1; experiment: Endothelial adhesion molecule expression ELISA, ICAM-1; format: cell-based, human; details: for integrin (ICAM-1) expression: HAAE-1, not complexed with LDL
Method: as §2, §3

[9] = tested on: VCAM-1; experiment: Endothelial adhesion molecule expression ELISA, VCAM-1; format: cell-based, human; details: for integrin (VCAM-1) expression: HAAE-1, not complexed with LDL
Method: as §2, §3

[10] = tested on: Class A scavenger receptor (SR-A); experiment: Scavenger receptor expression by flow cytometry, SR-A; format: cell-based, murine; details: for upregulation of SR-A: J774A.1, 25 μM with LDL (100 μg/ml protein), 6 h; for SR-A expression: cultured macrophages, in the absence of LDL
Method: as §1

[11] = J774A.1, 25 μM complexed with LDL (100 μg/ml protein), 6 h
[12] = cultured macrophages, in the absence of LDL
[13] = HAAE-1, 25 μM in the presence of LDL, or lipoprotein alone

Sequence of LDL / apoB-100 (P04114 28-4563, species assumed): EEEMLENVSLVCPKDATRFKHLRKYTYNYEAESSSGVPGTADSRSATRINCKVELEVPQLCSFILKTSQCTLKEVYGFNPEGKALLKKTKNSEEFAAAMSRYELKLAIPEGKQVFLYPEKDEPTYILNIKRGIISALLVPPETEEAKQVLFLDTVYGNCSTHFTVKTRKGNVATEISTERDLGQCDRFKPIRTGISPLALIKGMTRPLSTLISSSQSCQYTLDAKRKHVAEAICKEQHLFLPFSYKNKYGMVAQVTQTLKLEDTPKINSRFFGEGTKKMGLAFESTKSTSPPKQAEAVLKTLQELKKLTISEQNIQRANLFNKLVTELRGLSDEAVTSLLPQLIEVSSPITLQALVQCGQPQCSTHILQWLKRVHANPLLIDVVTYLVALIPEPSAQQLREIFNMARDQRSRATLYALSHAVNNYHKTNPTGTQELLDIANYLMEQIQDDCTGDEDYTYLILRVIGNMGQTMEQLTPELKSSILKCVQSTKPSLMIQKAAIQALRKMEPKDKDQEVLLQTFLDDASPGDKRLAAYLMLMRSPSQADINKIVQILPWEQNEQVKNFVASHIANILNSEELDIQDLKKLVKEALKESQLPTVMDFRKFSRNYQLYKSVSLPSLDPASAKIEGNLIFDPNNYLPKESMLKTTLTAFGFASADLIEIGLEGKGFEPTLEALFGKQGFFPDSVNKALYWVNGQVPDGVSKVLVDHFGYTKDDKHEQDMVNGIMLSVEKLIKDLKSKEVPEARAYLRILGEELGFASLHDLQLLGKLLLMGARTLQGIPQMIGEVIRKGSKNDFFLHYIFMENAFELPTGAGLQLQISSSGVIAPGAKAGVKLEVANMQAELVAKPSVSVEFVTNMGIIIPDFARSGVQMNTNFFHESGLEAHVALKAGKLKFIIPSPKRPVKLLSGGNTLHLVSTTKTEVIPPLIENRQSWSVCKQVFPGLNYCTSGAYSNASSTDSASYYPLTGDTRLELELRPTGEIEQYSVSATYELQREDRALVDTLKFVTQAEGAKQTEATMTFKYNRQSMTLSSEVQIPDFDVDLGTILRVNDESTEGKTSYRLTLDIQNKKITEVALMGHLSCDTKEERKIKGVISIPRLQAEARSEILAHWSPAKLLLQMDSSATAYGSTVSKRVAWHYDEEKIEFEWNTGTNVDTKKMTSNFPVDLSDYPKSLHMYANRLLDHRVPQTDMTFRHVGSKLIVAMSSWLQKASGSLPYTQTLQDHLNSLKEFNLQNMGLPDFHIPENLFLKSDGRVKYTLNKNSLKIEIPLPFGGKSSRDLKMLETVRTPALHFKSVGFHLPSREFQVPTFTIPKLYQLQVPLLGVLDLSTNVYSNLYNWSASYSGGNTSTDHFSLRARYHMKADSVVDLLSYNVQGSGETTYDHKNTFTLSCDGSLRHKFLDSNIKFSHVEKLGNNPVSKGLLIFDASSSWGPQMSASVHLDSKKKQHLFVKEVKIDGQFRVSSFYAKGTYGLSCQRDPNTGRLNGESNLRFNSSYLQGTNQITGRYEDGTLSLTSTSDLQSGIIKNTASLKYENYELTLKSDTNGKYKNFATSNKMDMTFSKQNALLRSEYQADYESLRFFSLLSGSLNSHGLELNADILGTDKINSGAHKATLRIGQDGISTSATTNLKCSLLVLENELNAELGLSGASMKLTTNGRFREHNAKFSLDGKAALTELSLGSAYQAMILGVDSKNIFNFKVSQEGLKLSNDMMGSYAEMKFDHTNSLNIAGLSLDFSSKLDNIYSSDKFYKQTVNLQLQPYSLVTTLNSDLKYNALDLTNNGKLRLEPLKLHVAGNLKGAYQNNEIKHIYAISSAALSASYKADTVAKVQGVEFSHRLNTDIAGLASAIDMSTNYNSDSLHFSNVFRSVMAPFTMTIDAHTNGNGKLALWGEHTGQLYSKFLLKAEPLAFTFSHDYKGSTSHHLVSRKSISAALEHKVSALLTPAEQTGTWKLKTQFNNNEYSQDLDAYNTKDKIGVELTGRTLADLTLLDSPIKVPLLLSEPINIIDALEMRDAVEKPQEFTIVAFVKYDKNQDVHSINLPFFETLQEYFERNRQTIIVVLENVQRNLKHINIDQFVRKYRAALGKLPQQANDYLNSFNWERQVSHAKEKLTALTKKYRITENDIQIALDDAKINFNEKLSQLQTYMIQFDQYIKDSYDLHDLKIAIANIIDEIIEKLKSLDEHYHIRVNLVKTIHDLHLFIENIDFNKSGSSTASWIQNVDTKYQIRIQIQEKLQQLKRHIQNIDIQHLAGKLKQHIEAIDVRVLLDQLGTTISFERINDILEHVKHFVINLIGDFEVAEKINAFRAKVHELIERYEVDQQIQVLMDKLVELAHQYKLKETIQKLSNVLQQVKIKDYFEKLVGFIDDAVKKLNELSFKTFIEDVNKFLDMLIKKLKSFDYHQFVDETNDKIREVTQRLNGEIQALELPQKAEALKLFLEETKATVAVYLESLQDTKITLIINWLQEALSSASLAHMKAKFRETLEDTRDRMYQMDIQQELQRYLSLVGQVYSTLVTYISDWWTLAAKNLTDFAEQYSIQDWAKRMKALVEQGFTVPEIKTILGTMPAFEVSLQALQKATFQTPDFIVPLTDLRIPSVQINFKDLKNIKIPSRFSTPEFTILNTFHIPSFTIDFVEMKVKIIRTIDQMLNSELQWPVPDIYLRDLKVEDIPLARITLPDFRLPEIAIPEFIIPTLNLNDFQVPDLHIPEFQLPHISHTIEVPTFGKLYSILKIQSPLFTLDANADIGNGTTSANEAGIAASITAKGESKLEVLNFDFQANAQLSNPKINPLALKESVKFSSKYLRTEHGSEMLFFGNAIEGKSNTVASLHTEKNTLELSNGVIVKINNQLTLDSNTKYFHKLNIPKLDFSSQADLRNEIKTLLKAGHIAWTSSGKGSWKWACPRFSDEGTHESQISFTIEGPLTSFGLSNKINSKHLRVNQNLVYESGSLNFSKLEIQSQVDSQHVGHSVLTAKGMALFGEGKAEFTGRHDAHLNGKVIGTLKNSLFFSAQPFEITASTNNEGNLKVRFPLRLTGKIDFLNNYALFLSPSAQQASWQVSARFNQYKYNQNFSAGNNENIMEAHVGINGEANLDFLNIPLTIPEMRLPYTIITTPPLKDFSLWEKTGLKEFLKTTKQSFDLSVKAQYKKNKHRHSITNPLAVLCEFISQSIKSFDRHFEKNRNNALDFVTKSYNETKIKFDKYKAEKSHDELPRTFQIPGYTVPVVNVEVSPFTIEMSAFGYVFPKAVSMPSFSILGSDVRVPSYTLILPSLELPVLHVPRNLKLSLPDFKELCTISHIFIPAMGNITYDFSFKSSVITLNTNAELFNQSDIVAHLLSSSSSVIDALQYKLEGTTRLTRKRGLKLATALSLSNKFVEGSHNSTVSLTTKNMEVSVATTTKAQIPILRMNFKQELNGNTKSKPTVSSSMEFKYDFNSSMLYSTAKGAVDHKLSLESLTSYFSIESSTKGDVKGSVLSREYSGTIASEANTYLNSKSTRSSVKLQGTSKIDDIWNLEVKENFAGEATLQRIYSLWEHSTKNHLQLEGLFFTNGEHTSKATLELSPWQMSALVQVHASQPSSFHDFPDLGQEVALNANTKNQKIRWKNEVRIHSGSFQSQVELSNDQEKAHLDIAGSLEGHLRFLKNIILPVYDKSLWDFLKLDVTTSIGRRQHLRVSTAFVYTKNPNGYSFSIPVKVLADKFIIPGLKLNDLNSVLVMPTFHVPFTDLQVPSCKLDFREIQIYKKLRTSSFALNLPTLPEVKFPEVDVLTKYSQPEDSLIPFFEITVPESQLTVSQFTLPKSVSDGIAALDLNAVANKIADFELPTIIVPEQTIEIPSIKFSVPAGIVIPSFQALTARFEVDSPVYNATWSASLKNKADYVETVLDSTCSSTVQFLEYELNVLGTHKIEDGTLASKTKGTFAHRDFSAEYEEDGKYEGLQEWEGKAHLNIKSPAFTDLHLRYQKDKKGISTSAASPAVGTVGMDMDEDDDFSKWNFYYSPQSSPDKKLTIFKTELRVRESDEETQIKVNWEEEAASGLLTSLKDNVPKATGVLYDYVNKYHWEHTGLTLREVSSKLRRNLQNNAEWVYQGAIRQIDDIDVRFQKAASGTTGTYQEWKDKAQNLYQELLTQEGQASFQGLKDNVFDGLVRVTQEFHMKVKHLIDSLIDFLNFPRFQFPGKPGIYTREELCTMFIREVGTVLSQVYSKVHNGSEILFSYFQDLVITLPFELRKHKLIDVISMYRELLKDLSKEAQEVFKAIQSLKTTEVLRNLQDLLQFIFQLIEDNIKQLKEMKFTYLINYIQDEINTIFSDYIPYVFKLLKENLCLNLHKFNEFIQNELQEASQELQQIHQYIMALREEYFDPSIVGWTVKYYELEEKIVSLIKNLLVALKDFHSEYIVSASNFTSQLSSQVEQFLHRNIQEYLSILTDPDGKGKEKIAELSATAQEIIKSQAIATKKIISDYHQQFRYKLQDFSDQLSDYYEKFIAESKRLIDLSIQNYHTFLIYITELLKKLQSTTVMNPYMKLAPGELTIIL

CC(C)CCC[C@@H](C)[C@H]1CCC2C(CC=O)C([C@@]3(C)CC[C@H](O)CC3=O)CC[C@@]21C (stereo partly drawn) [4a, 3β-Hydroxy-5-oxo-5,6-secocholestan-6-al]
CD36 expression [1, 11]: little or no effect
CD36 expression [1, 12]: did not increase expression
cytotoxic towards neuronal cell lines [2]: cytotoxic
IC50 ([3]; MH-S, LDH release, 0-100 μM, read-out: IC50): 11.2 ± 1.2 µM
random coil of LDL [4]: ~39±2%
α helical structure of LDL [4]: ~23±5%
lipid-loading of macrophages / foam cell formation [5]: began lipid-loading
E-selectin levels ([6]; HAAE-1, 1.25 μM complexed with LDL): 2 fold
E-selectin levels ([6]; HAAE-1, 50 μM complexed with LDL): about 8 fold
upregulation of E-selectin expression relative to vehicle control [6]: greater than 4 fold
selectin (E-selectin) expression [6]: no effects
adhesion of U-937 monocytes to endothelial cell monolayers, above that of LDL alone [7]: no significant increase in equilibrium binding of monocytes to endothelial cells
ICAM-1 levels [8, 13]: remain unchanged
integrin (ICAM-1) expression [8]: no effects
VCAM-1 levels [9, 13]: remain unchanged
integrin (VCAM-1) expression [9]: no effects
upregulation of SR-A [10]: approximately 3 fold
SR-A expression [10]: did not increase expression

CC(C)CCC[C@@H](C)[C@H]1CCC2C3C(CC[C@@]21C)[C@@]1(C)CC[C@H](O)C[C@@]1(O)[C@@H]3C=O (stereo partly drawn) [5a, 3β-Hydroxy-5β-hydroxy-B-norcholestane-6β-carboxaldehyde]
CD36 expression [1, 11]: little or no effect
CD36 expression [1, 12]: did not increase expression
cytotoxic towards neuronal cell lines [2]: cytotoxic
IC50 ([3]; Mus musculus, Macrophage): 13.6 ± 1.1 µM
random coil of LDL [4]: 32±4%
α helical structure of LDL [4]: ~20±2%
lipid-loading of macrophages / foam cell formation [5]: began lipid-loading
upregulation of E-selectin expression relative to vehicle control [6]: 1.8 fold
selectin (E-selectin) expression [6]: no effects
adhesion of U-937 monocytes to endothelial cell monolayers, above that of LDL alone [7]: no significant increase in equilibrium binding of monocytes to endothelial cells
integrin (ICAM-1) expression [8]: no effects
integrin (VCAM-1) expression [9]: no effects
upregulation of SR-A [10]: approximately 3 fold
SR-A expression [10]: did not increase expression

Source: US20070059242A1, “METHODS TO IDENTIFY THERAPEUTIC AGENTS” (priority 2005, published 2007)
